Results from US20050136444A1 (priority 2003, published 2005).
“Also recorded” adds a separate entry of the source. Structures can show the parent of a compound that is named as a salt. Where two headings read alike, the source gives them in different places.

Columns and labels:
NPFF1 = NPFF1 (Homo sapiens, UniProt Q9GZQ6); experiment: cAMP assay in transiently transfected HEK-T cells, NPFF1; assay type: cell-based; design: expressed in transfected cells; conditions: for Emax: HEK-T cell, read-out: NPFF1 % Efficacy Mean; for EC50: read-out: NPFF1 pEC50 Mean (converted)
Source text: An assay was established for measuring cAMP in transiently transfected cells that takes advantage of the fact that most cells that are transfected with one gene, can be simultaneously transfected with other genes. Thus, the NPFF1 and NPFF2 receptors were transfected along with a Gs-coupled receptor (EP2) at a ratio of 5:1. […] Improvement was also detected in the sensitivity of the assay in some cases when cells are co-transfected with AC5 at ½-⅕ of the amount of DNA of the Gi-coupled receptor studied.
This set up was routinely used for the transfection of HEK-T cells with NPFF1 and NPFF2 receptors. After 48 hours the cAMP assay was set up using DiscoveRx assay protocol with transfected cells in suspension in the presence of varying concentrations of the NPFF ligands and 300 nM of […] in white bottom plates. Cells were incubated for 15 minutes at 37° C. At the end of incubation, cells were lysed and the remainder of the assay performed as per DiscoveRx protocol.
(§1) Cells were incubated for another 15 minutes at 37° C. following which the cells were lysed and processed as per kit protocol.

[1] = test system: formalin-induced flinching; experiment: Formalin Flinching; assay type: in vivo, rat; conditions: rats, 10 mg/kg i.p. 15 min prior to formalin
Experimental: Naive male Sprague-Dawley rats (175-200 g) were injected with a test compound followed by an injection of 50 μl of a 5.0% formalin solution into the dorsal surface of a hind paw and then placed in individual plastic cages for observation. The number of nociceptive responses (i.e., paw flinches/licks/bites) was counted for a period of 60 min following formalin injection. […] Compounds were administered 15 min prior to formalin injection. The results are depicted in FIG. 4.
(§2) A model of tonic pain was created in rats by administering an injection of 5.0% formalin solution (50 μl) into the dorsal surface of a hind paw and then placing the rat in an individual plastic cage for observation. Paw flinches/licks/bites are counted for a period of 60 min. Rats received either vehicle or Compound 3099 (10 mg/kg, i.p.) 15 min prior to the formalin injection. […] This finding is consistent with our previous data.
as §2, with “min.” for “min. Rats received either vehicle or Compound 3099 (10 mg/kg, i.p.) 15 min prior to the formalin injection.”

[2] = test system: Carrageenan-induced Thermal Hyperalgesia; experiment: Carrageenan-induced Thermal Hyperalgesia (hot plate); assay type: in vivo, rat; conditions: for hot plate latencies in vehicle-treated (no carrageenan) rats: 10 mg/kg; for calculated A50, reversal of thermal hyperalgesia: 95% CI; for reversal of carrageenan-induced thermal hyperalgesia: rats, 1, 3 and 10 mg/kg, hot plate
Experimental: Naive male Sprague-Dawley rats (175-200 g) were assessed for their responsiveness to a noxious thermal stimulus. Response latencies were measured using the hot plate test. Rats were placed in a plexiglass enclosure on a thermostatically controlled metal plate maintained at 52° C. […] Following testing, an animal model of acute inflammatory pain was created by injecting 100 μl of 2% λ-carrageenan ion to a hind paw. Three hours after carrageenan injection, hot plate latencies were again obtained. A significant reduction in the hot plate latency was interpreted as the presence of thermal hyperalgesia. Rats were injected with compound or vehicle and then tested at various time-points following drug administration. Data were converted to % Maximum Possible Effect (% MPE) by the formula, % MPE=((test-post-inflammatory)/(naive-post-inflammatory))*100, where the test score is the hot plate latency obtained after compound administration, the post-inflammatory score is the average response obtained 3 hr post-carrageenan, and the naive score is the average response obtained prior to manipulation. Additionally, paw thickness was measured (with a micrometer) following testing in order to quantify edema. Although none of the compounds tested reversed carrageenan-induced edema formation (data not shown), these compounds produced a dose-related reversal of carrageenan-induced thermal hyperalgesia.
Rats were injected (i.paw.) with 100 μl of 2% carrageenan or vehicle (dH2O) in order to produce a state of acute inflammatory pain. […] Rats were then treated with various doses of Compound 1045 (1, 3 and 10 mg/kg, i.p.) and hot plate latencies were tested across a period of 3 hours.
Rats were injected (i.paw.) with 100 μl of 2% carrageenan or vehicle (dH2O) in order to produce a state of acute inflammatory pain.
Rats were injected (i.paw.) with 100 μl of 2% carrageenan or vehicle (dH2O) in order to produce a state of acute inflammatory pain. […] Rats were then treated with various doses of Compound 3099 (1, 3 and 10 mg/kg, i.p.) and hot plate latencies were tested across a period of 3 hours.

NPFF2b = biological target: T1, NPFF2b (Homo sapiens, UniProt Q9Y5X5); experiment: cAMP assay in transiently transfected HEK-T cells, NPFF2; assay type: cell-based; conditions: for EC50: cAMP data, Table 2, HEK-T cells, read-out: NPFF2b pEC50 Mean (converted)
T1 construct: expressed in transfected cells; host or cells: HEK-T
Experimental: An assay was established for measuring cAMP in transiently transfected cells that takes advantage of the fact that most cells that are transfected with one gene, can be simultaneously transfected with other genes. Thus, the NPFF1 and NPFF2 receptors were transfected along with a Gs-coupled receptor (EP2) at a ratio of 5:1.
This set up was routinely used for the transfection of HEK-T cells with NPFF1 and NPFF2 receptors. […] Cells were incubated for 15 minutes at 37° C. At the end of incubation, cells were lysed and the remainder of the assay performed as per DiscoveRx protocol.
as §1

[3] = test system: 52° C. Water Tail Flick Test; experiment: 52° C. Water Tail Flick Test, intrathecal administration; assay type: in vivo, rat; conditions: rats, morphine 3, 10, 30 μg, NPFF 100 μg, 1045 11.6 or 115.5 μg, 1DME 5.6, 55.6 or 556.0 μg
Experimental: Rats were implanted with chronically indwelling intrathecal catheters (PE-10; 7.5 cm) allowing for the delivery of compounds to the lumbar spinal cord. As a positive control, rats were treated with various doses of morphine (3, 10 and 30 μg).
Rats were implanted with chronically indwelling intrathecal catheters (PE-10; 7.5 cm) allowing for the delivery of compounds to the lumbar spinal cord.
Rats were implanted with chronically indwelling intrathecal catheters (PE-10; 7.5 cm) allowing for the delivery of compounds to the lumbar spinal cord. In order to rule out the possibility that the lack of antinociception produced by NPFF was due to the degradation of the peptide we administered 1DME (a stable NPFF analog).

[4] = test system: Compound 2616-induced Tactile Allodynia; experiment: Compound 2616-induced Tactile Allodynia in naive rats, effect of dPQR; assay type: in vivo, rat; conditions: 10 mg/kg, i.p., 75 min post-injection, vs vehicle; Hydrochloride
Experimental: To confirm that the pronociceptive actions of Compound 2616 were mediated via NPFF1 receptors we performed a pharmacological experiment where we administered dPQR (Dansyl-Pro-Gln-Arg, a reported NPFF antagonist, custom synthesized by Phoenix Pharmaceuticals) to rats treated with Compound 2616. Baseline paw withdrawal thresholds were obtained in naive rats. Following testing, the rats received either vehicle or Compound 2616 (10 mg/kg, i.p.). […] Half of the rats that received Compound 2616 were then injected with either vehicle or dPQR (30 mg/kg, i.p.).

[5] = cAMP data, Table 2, HEK-T cells

T1 sequence (Q9Y5X5 103-522 limits assumed): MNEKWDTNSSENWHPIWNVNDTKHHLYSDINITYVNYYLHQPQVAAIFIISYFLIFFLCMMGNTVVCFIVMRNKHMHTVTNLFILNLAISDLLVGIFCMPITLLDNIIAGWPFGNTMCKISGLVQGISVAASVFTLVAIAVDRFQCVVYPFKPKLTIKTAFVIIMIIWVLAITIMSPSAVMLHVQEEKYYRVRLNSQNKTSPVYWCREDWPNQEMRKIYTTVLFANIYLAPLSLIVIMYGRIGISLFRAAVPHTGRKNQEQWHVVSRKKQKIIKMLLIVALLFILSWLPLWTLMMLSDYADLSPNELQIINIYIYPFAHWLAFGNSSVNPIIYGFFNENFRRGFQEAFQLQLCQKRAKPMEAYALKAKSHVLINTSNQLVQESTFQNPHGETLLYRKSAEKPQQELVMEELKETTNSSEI
Chain of NPFF1 (Q9GZQ6 whole entry, species assumed): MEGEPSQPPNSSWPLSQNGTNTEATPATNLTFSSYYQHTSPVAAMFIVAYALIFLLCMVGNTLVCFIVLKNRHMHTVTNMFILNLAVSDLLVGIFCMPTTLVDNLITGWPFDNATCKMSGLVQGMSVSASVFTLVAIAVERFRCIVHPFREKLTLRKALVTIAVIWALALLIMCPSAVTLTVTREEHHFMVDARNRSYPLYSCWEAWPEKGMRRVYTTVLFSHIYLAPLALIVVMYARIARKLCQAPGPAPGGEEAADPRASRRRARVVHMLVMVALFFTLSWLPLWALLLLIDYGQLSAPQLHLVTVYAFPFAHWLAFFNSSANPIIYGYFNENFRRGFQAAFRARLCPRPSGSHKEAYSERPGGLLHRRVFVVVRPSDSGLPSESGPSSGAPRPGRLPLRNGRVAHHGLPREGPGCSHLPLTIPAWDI

Emax (NPFF1; [5]) | SMILES | EC50 (NPFF1; [5]) | formalin-induced flinching, phase I ([1]; 0-10 min post-formalin) | inhibition of formalin-induced flinching, phase II ([1]; 15-60 min post-formalin) | hot plate latencies in vehicle-treated (no carrageenan) rats [2] | time of peak effect after administration ([2]; carrageenan-treated rats, i.p.) | calculated A50, reversal of thermal hyperalgesia ([2]; carrageenan-treated rats, i.p.) | reversal of carrageenan-induced thermal hyperalgesia ([2]; i.p.) | EC50 (NPFF2b) | antinociception in 52° C. water tail flick test [3] | maximum efficacy, reversal of thermal hyperalgesia ([2]; carrageenan-treated rats, i.p.) | carrageenan-induced edema formation in the hind paw ([2]; rats, paw thickness) | Emax (NPFF1) | Emax (NPFF2b; HEK-T cell, read-out: NPFF2b % Efficacy Mean) | paw withdrawal thresholds / tactile sensitivity of naive rats [4]
23% | Cl.N=C(N)N/N=C/c1ccc(Br)c(Br)c1 [Compound 3093, 1-(3,4-Dibromobenzylideneamino)guanidine Hydrochloride] | 15.8 µM | inactive | ~62.1 % inhibition | did not significantly alter the hot plate latencies | 30 to 60 min | 1.6 mg | dose-related reversal of thermal hyperalgesia | 6.31 µM |  |  |  |  |  | 
 | NC(N)=N/N=C/c1ccc(Cl)c(Cl)c1 [Compound 1045, 1-(3,4-Dichlorobenzylideneamino)guanidine Hydrochloride] |  |  |  | did not significantly alter sensitivity to noxious thermal stimulation |  | 7.8 mg/kg | dose-related reversal of thermal hyperalgesia |  | failed to elicit antinociception | 57.6% | did not significantly alter edema formation |  |  | 
 | NC(N)=NN=Cc1ccc(-c2ccccc2C(F)(F)F)o1 (racemic) [Compound 2616, 1-[(5-(2-(Trifluoromethyl)phenyl)-furan-2-yl)-methyleneamino]guanidine Hydrochloride] | 1.26 µM |  |  |  |  |  |  | 3.16 µM |  |  |  | 93% | 114% | markedly decreased; also recorded: resulted in an increased sensitivity to innocuous tactile stimulation
